Assay [1] has as its target T1, serum α1,3-L-fucosyltransferase (Homo sapiens, UniProt P51993).
T1 construct: Sera were collected from healthy females and ovarian cancer patients; from tissue; host or cells: blood serum of ovarian cancer patients and healthy females
T1 sequence (P51993 35-359 limits assumed): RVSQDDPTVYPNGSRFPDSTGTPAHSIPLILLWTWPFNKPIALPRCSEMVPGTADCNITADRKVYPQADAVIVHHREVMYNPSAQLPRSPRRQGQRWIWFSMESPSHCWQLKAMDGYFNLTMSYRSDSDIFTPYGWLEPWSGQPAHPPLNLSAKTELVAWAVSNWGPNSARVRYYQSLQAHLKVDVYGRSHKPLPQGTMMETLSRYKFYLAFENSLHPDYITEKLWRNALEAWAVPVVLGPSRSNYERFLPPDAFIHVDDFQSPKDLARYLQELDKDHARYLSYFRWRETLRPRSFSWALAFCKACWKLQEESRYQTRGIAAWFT
The assay is described as follows: Assay of α1,3-fucosyltransferase with various synthetic acceptors, ovarian cancer sera as enzyme source. The assay is classed as biochemical. To be noted: for Relative Percent: 2'-methyl LacNAc = 100; for [14C] Fucose Incorporated (CPM): acceptor 0.3 mM, 37° C. 18 h. The method, then:
Sera were collected from healthy females and ovarian cancer patients admitted to Roswell Park Cancer Institute in Buffalo, N.Y., USA. Ovarian tumor tissues were obtained during surgical procedures from patients with ovarian cancer. Both sera and tissues were stored frozen at -70° C. until use.
(§1) An incubation mixture contained 50 mM HEPES-NaOH, pH 7.5, 5 mM MnC12, 7 mM ATP, 3 mM NaN3, the acceptor 0.3 mM (for serum enzyme) or 3.0 mM (for tumor enzyme), 0.125 μCi of GDP-[U-^14 C] Fuc (Sp. Act. 216 mCi/mmol) and enzyme in a total volume of 0.10 ml; the control incubation mixture had everything except the acceptor. At the end of incubation at 37° C. for 18 h, the mixture was diluted with 1 ml water and passed through Dowex-1-C1 column (1 ml in a Pasteur pipet). The column was washed twice with 1 ml water; the breakthrough and wash, which contained the [^14 C] fucosylated neutral acceptor, were collected together in a scintillation vial and counted for radioactivity using the scintillation coctail 3a70 (Research Products International, Mount Prospects, Ill.) and Beckman LS9000. The Dowex column was then eluted successively with 3 ml each of 0.1M and 0.2M NaCl; these eluates which contained the [^14 C] fucosylated sulfated acceptors, were counted for radioactivity as before. Corrections were made by subtracting the radioactivity in the water and NaCl eluates of the control incubation mixture from the corresponding test fractions. The duplicate runs of samples gave almost identical values, the difference being <5%.
The activity of serum α1,3-fucosyltransferase was measured with the specific substrate 2'-methyl LacNAc and compared with the ability of several other synthetic substrates to act as an acceptor of fucose.
When the structure of the acceptor 2'-methyl LacNAc was modified by replacing the methyl group with sulfate group in C-2', 3', 6' or 6 position and tested their ability to act as the acceptor of fucose, the following novel findings emerged. […] The β-benzyl glycoside of 3' sulfo LacNAc was quite active (168.4%) but less than the parent compound.

Assay [2] relates to α1,3-L-fucosyltransferase of the soluble fraction of human ovarian tumor. Put plainly: Assay of α1,3-fucosyltransferase with synthetic acceptors, partially purified enzyme of ovarian tumor soluble fraction. The assay is classed as biochemical. The settings on record: for [14C] Fucose Incorporated (CPM): acceptor 3.0 mM, 37° C. 18 h. The method, then: as §1
As shown in the scheme set forth in FIG. 2, the α-L-fucosidase-free extract of the tissue (40 g), after concentration by 80% (NH4)2 SO4 precipitation was fractionated on bovine IgG glycopep-Sepharose in batches of 25 ml. After washing the column with the equilibration buffer, the bound enzyme was eluted with 1 M NaCl in the same buffer. The protein positive fractions were pooled and processed as shown in the scheme 2.0 ml of the above preparation was loaded on a Sephacryl S-200 column (Superfine:2.6 cm×88.0 cm) equilibrated at 4° C. with 50 mM Tris-HC1, pH 7.0 containing 0.15M NaCl and 0.1% Triton X-100 and eluted with the same buffer. Fractions of 3.0 ml were collected. The fucosyltransferase activity was located in the effluent fractions, by assaying first every 5th fraction and then obtaining the activity profile by assaying the alternate fractions in that range, using 2'-fucosyl LacNAc as the acceptor. […] Its elution position, which is slightly later than BSA, run separately on the same column, indicates its molecular weight as <67,000 daltons. […] The enzyme has been purified 66 fold over the soluble extract with a recovery of 6.2%. The enzyme at this stage lost its activity either kept frozen at -20° C. or left at 4° C. for more than a week. However, the enzyme at the end of the previous step was fairly stable for at least two months at 4° C. So this preparation of enzyme was used in acceptor ability comparison studies.
When α1,3-fucosyltransferase activity of the partially purified enzyme preparation from the soluble portion of ovarian tumor was measured and compared with the activity of other acceptors, the following results were obtained. 2'-methyl LacNAc, LacNAc and Galβ1, 3GlcNAc were respectively 100.0%, 60.6% and 565.5% active, indicating the presence of both α1,3 and α1,4 fucosyltransferase activities in this preparation.

Assay [3] concerns α1,3-L-fucosyltransferase of the particulate fraction of ovarian tumor. Put plainly: Assay of α1,3-fucosyltransferase with synthetic acceptors, ovarian tumor particulate fraction. The assay is classed as biochemical, human. The settings on record: for Relative Percent: 2'-methyl LacNAc = 100; for [14C] Fucose Incorporated (CPM): acceptor 3.0 mM, 37° C. 18 h. As to the method: FIG. 2 The scheme for the preparation of the particulate and soluble fractions of human ovarian tumor.
as §1
This finding is quite different from what we found with the soluble fraction, where α1,4-fucosyltransferase activity seems to be greater than α1,3-fucosyltransferase activity. […] The different nature of the above enzymes was made further clear, when sulfated derivatives of LacNAc was tested as acceptors.

On to `CC(=O)N[C@H]1C(O)O[C@H](CO)[C@@H](O)[C@@H]1O[C@@H]1O[C@H](CO)[C@H](O)[C@H](O)[C@H]1O` (stereo partly drawn) [Ga1β1,3G1cNAc], for which the “Relative Percent” value in assay [1] is listed as 13.1%; in assay [2] (2'-methyl LacNAc = 100) it was 565.5%; in assay [2] (2'-methyl LacNAc = 100, listed as Galβ1, 3 GlcNAc), 566%; in assay [2] (2'-methyl LacNAc = 100, listed as Galβ1, 3GlcNAc) it was 565.5%; in assay [3], 34.2%. Moreover, the “[14C] Fucose Incorporated (CPM)” value in assay [1] came out at 227 CPM; in assay [2], 41802 CPM; in assay [3] it was 16511 CPM.

Regarding `CC(=O)N[C@H]1[C@H](OCc2ccccc2)O[C@H](CO)[C@@H](O)[C@@H]1O[C@@H]1O[C@H](CO)[C@H](O)[C@H](O)[C@H]1O` [Ga1β1,3G1cNAcβ-O--Bn], the “Relative Percent” value in assay [1] is reported as 21.7%; in assay [2] (2'-methyl LacNAc = 100) it was 1004.5%; in assay [2] (2'-methyl LacNAc = 100, listed as β-benzyl glycoside of Galβ1, 3 Glc NAc), 1005%; in assay [2] (2'-methyl LacNAc = 100, listed as β-benzyl glycoside of Galβ1,3GlcNAc), 1004.5%; in assay [3] it was 37.8%. The “[14C] Fucose Incorporated (CPM)” value is recorded as 376 CPM in assay [1], 74260 CPM in assay [2] and 18221 CPM in assay [3].

For the molecule `CC(=O)N[C@H]1C(O)O[C@H](CO)[C@@H](O[C@@H]2O[C@H](CO)[C@H](O)[C@H](O)[C@H]2O)[C@@H]1O` (stereo partly shown) [LacNAc], the “Relative Percent” value in assay [1] is 93.4%; in assay [2] (2'-methyl LacNAc = 100), 60.6%; in assay [3] it was 61.8%. Moreover, the “[14C] Fucose Incorporated (CPM)” value is listed as 1615 CPM in assay [1], 4480 CPM in assay [2] and 29842 CPM in assay [3].

For the molecule `CC(=O)N[C@H]1[C@H](O[C@H]2[C@@H](O)[C@@H](CO)O[C@@H](Oc3ccc([N+](=O)[O-])cc3)[C@@H]2O)O[C@H](CO)[C@@H](O[C@@H]2O[C@H](CO)[C@H](O)[C@H](O)[C@H]2O)[C@@H]1O` [LacNAcβ1,3Ga1β-O--PNP], the “Relative Percent” value is on record as 166.8% in assay [1], 87.0% in assay [2] (2'-methyl LacNAc = 100) and 70.0% in assay [3]. Besides, the figures for the “[14C] Fucose Incorporated (CPM)” value in assay [1], in assay [2] and in assay [3] were 2886 CPM, 6432 CPM and 33759 CPM, respectively.

For the molecule `CC(=O)N[C@H]1[C@H](OCc2ccccc2)O[C@H](CO)[C@@H](O[C@@H]2O[C@H](CO)[C@H](O)[C@H](O)[C@H]2O)[C@@H]1O` [LacNAcβ-O--Bn], the entries for the “Relative Percent” value in assay [1], in assay [2] (2'-methyl LacNAc = 100) and in assay [3] were 358.8%, 111.6% and 132.9%, respectively. The “[14C] Fucose Incorporated (CPM)” value in assay [1] was determined as 6207 CPM; in assay [2], 8249 CPM; in assay [3] it was 64223 CPM.
